In data set [1] the test system is normal human induced pluripotent stem cell (hiPSC) cardiomyocyte. To be noted: for WT-Fold Prolongation: APD.
For data set [2], the system named is cardiomyocytes derived from hiPSCs from a LQTS3 patient. The following applies: for LQT-IC50 (uM)-Shortening: APD shortening.
The mark [3] stands for this setting: WT cardiomyocytes, AP prolongation.
Setting [4] is: LQT-3 cardiomyocytes, AP shortening.

Where two headings read alike, the source gives them in different places.

Take `Cc1cccc(C)c1OCC(C)Nc1ccccc1` (stereo not drawn) [Compound 43, 1-(2,6-dimethylphenoxy)-N-phenylpropan-2-amine]: in data set [1] (normal hiPSC cardiomyocytes), the “WT-Fold Prolongation” value is “None”, the “Cessation of Beating” value was “None” and the “WT-Prolongation Dose” value is recorded as “None”. In addition, in data set [2] (LQT3 cardiomyocytes), the “LQT-Cessation Dose” value is listed as “None”, the “LQT-Fold Shortening” value is reported as “None” and the “LQT-Shortening Dose” value is reported as “None”.

Consider `C[C@@H](N)COc1ccccc1Cl` [Compound 58], for which, in data set [1] (normal hiPSC cardiomyocytes), the “WT-Fold Prolongation” value stood at 2.392, the “Cessation of Beating” value was “None” and the “WT-EAD Dose” value was 200 µM. Further, in data set [2] (LQT3 cardiomyocytes), the “LQT-Cessation Dose” value is listed as “None”, the “LQT-Fold Shortening” value is on record as “None” and the “LQT-Shortening Dose” value is reported as “None”.

In the case of `COc1ccccc1OCC(C)N` (stereo not drawn) [Compound 52, 1-(2-Methoxyphenoxy)propan-2-amine], in data set [1] (normal hiPSC cardiomyocytes), the “WT-Fold Prolongation” value was determined as 2.499, the “Cessation of Beating” value is on record as “None” and the “WT-EAD Dose” value came to 133 µM. In data set [2] (LQT3 cardiomyocytes), the “LQT-Cessation Dose” value is recorded as “None”, the “LQT-Fold Shortening” value is “None” and the “LQT-Shortening Dose” value is reported as “None”.

For `NC(COc1cc(C(F)(F)F)ccn1)c1ccccc1` (stereo not drawn) [Compound 97, 1-phenyl-2-((4-(trifluoromethyl)pyridin-2-yl)oxy)ethan-1-amine], in data set [1] (normal hiPSC cardiomyocytes), the “WT-Fold Prolongation” value was “None”, the “Cessation of Beating” value is listed as “None”, the “WT-EAD Dose” value is 133 µM and the “WT-Prolongation Dose” value is “None”. Further, in data set [2] (LQT3 cardiomyocytes), the “LQT-Cessation Dose” value is on record as “None” and the “LQT-Fold Shortening” value is listed as 1.1.

For the compound `NC(COc1ccc(C(F)(F)F)nc1)c1ccccc1` (stereo not drawn) [Compound 117], in data set [1] (setting [3]), the “WT-EC50 (μM) Prolongation” value is listed as “Does Not Prolong AP”. In addition, in data set [2] (LQT-3 cardiomyocytes), the “LQT-Fold Shortening” value is recorded as “Does Not Shorten” and the “LQT-Shortening Dose (μM)” value is listed as “Does Not Shorten”. The “LQT-EC50 (μM) Shortening” value in data set [2] (setting [4]) is given as “Does Not Shorten”.

In the case of `Cc1cccc(C)c1OCC(C)NCc1ccccc1` (stereo not drawn) [Compound 42, 1-(2,6-dimethylphenoxy)-N-benzylpropan-2-amine], the “WT-Fold Prolongation” value in data set [1] (normal hiPSC cardiomyocytes) is 1.684. Moreover, in data set [1] (human, 5 min), the “Cessation of Beating” value was 200 µM. Besides, the “LQT-Fold Shortening” value in data set [2] (LQT3 cardiomyocytes) was determined as 1.26. The “LQT-Cessation Dose” value in data set [2] (human, 5 min) was 133 µM.

Take `COCCNC(COc1cnccc1C(F)(F)F)c1ccccc1` (stereo not drawn) [Compound 124]: in data set [1] (setting [3]), the “WT-EC50 (μM) Prolongation” value was “Does Not Prolong AP”. The “LQT-Fold Shortening” value in data set [2] (LQT-3 cardiomyocytes) is recorded as 1.601. In addition, the “LQT-EC50 (μM) Shortening” value in data set [2] (setting [4]) is on record as “Shortens”.

In the case of `Cc1cccc(C)c1OCC(=NOCc1ccccc1)C1CC1` [Compound 46], the “Cessation of Beating” value in data set [1] is listed as “None”. Also, in data set [1] (normal hiPSC cardiomyocytes), the “WT-Fold Prolongation” value was “None” and the “WT-Prolongation Dose” value was “None”. Further, the “LQT-Cessation Dose” value in data set [2] is reported as “None”. Besides, in data set [2] (LQT3 cardiomyocytes), the “LQT-Fold Shortening” value amounted to 1.67.

In the case of `Cc1ccc(C(N)COc2c(C)cccc2C)cc1` (stereo not drawn) [Compound 17, 2-(2,6-dimethylphenoxy)-1-p-tolylethanamine], in data set [1] (normal hiPSC cardiomyocytes), the “WT-Fold Prolongation” value was “None”, the “Cessation of Beating” value was found to be 66 µM and the “WT-Prolongation Dose” value is reported as “None”. In addition, in data set [2] (LQT3 cardiomyocytes), the “LQT-Cessation Dose” value is 66 µM and the “LQT-Fold Shortening” value was 1.58.

With `Cc1cccc(C)c1OCC(C)O` (stereo not drawn) [Compound 37], in data set [1] (normal hiPSC cardiomyocytes), the “WT-Fold Prolongation” value was “None”, the “Cessation of Beating” value was “None” and the “WT-Prolongation Dose” value is “None”. Also, in data set [2] (LQT3 cardiomyocytes), the “LQT-Cessation Dose” value is listed as “None”, the “LQT-Fold Shortening” value is given as “None” and the “LQT-Shortening Dose” value was “None”.

Turning to `C[C@H](N)COc1ccccc1Cl` [Compound 59], in data set [1] (normal hiPSC cardiomyocytes), the “WT-Fold Prolongation” value worked out at 2.832, the “Cessation of Beating” value was “None” and the “WT-EAD Dose” value was 133 µM. In data set [2] (LQT3 cardiomyocytes), the “LQT-Cessation Dose” value was “None”, the “LQT-Fold Shortening” value is “None” and the “LQT-Shortening Dose” value is “None”.

As for `CCCNC(C)COc1c(C)cccc1C` (stereo not drawn) [Compound 38, 1-(2,6-dimethylphenoxy)-N-propylpropan-2-amine], in data set [1] (normal hiPSC cardiomyocytes), the “WT-Fold Prolongation” value came to 4.584, the “Cessation of Beating” value was determined as 200 µM and the “WT-EAD Dose” value stood at 66 µM. In data set [2] (LQT3 cardiomyocytes), the “LQT-Cessation Dose” value is 200 µM and the “LQT-Fold Shortening” value is listed as 1.19.

Turning to `Cc1cccc(C)c1OC[C@H](N)C1CC1.Cl` [Compound 61], the “Cessation of Beating” value in data set [1] is listed as “None”. The “WT-Fold Prolongation” value in data set [1] (normal hiPSC cardiomyocytes) was found to be 3.829. In addition, in data set [1] (human, 5 min), the “WT-EAD Dose” value worked out at 66 µM. In data set [2] (LQT3 cardiomyocytes), the “LQT-Fold Shortening” value was “None” and the “LQT-Shortening Dose” value is “None”. Further, the “LQT-Cessation Dose” value in data set [2] (human, 5 min) worked out at 200 µM.

Consider “2-(2,6-dimethylphenoxy)-1-(4-methoxyphenyl)ethanamine [Compound 14]”, for which, in data set [1] (normal hiPSC cardiomyocytes), the “WT-Fold Prolongation” value is reported as “None”, the “Cessation of Beating” value is listed as “None” and the “WT-Prolongation Dose” value was “None”. For the same compound, in data set [2] (LQT3 cardiomyocytes), the “LQT-IC50 (uM)-Shortening” value is listed as “None”, the “LQT-Cessation Dose” value is reported as “None”, the “LQT-Fold Shortening” value was “None” and the “LQT-Shortening Dose” value was “None”.

With `CCNC(COc1cccc(C)c1C)c1ccccc1` (stereo not drawn) [Compound 33, 2-(2,3-dimethylphenoxy)-N-ethyl-1-phenylethanamine], in data set [1] (normal hiPSC cardiomyocytes), the “WT-Fold Prolongation” value is given as “None”, the “Cessation of Beating” value was 133 µM and the “WT-Prolongation Dose” value was “None”. In data set [2] (LQT3 cardiomyocytes), the “LQT-Cessation Dose” value turned out to be 22 µM, the “LQT-Fold Shortening” value is “None” and the “LQT-Shortening Dose” value was “None”.

In the case of `Cc1cccc(C)c1OCC(O)C(C)(C)C` (stereo not drawn) [Compound 22], in data set [2] (LQT3 cardiomyocytes), the “LQT-Cessation Dose” value is “None” and the “LQT-Fold Shortening” value worked out at 1.29.

For `Cc1cccc(C)c1OCC(C)NCCc1ccccc1` (stereo not drawn) [Compound 44, 1-(2,6-dimethylphenoxy)-N-(2-phenylethyl)propan-2-amine], in data set [1] (normal hiPSC cardiomyocytes), the “WT-Fold Prolongation” value amounted to 2.698, the “Cessation of Beating” value amounted to 133 µM and the “WT-EAD Dose” value came out at 22 µM. Moreover, in data set [2] (LQT3 cardiomyocytes), the “LQT-Cessation Dose” value was 7.4 µM and the “LQT-Fold Shortening” value is 1.7.

Consider `NC(COc1ccccn1)c1ccccc1` (stereo not drawn) [Compound 20, 1-phenyl-2-(pyridin-2-yloxy)ethanamine], for which, in data set [1] (normal hiPSC cardiomyocytes), the “WT-Fold Prolongation” value is recorded as “None”, the “Cessation of Beating” value is given as “None” and the “WT-Prolongation Dose” value is given as “None”. Besides, in data set [1] (pyridyl derivatives), the “WT-Cessation Dose” value is “No cessation of beating” and the “WT-EC50 (μM) Prolongation” value was “Does Not Prolong AP”. Besides, in data set [2] (LQT3 cardiomyocytes), the “LQT-Cessation Dose” value is given as “None”, the “LQT-Fold Shortening” value was “None” and the “LQT-Shortening Dose” value is “None”. Also, in data set [2] (pyridyl derivatives), the “LQT-EC50 (μM) Shortening” value is on record as “Does Not Shorten”, the “LQT-Fold Shortening” value was “Does Not Shorten” and the “LQT-Shortening Dose” value was “Does Not Shorten”.

As to `Cc1cccc(OCC(C)N)c1.Cl` (stereo not drawn) [Compound 86], in data set [1] (normal hiPSC cardiomyocytes), the “WT-Fold Prolongation” value is reported as 1.68, the “Cessation of Beating” value is given as “None” and the “WT-EAD Dose” value came to 66 µM. Further, in data set [2] (LQT3 cardiomyocytes), the “LQT-IC50 (uM)-Shortening” value is reported as “Shortens”, the “LQT-Cessation Dose” value was “None” and the “LQT-Fold Shortening” value was found to be 1.418.

On to `Cc1cc(C)cc(OCC(NCCO)c2ccccc2)c1` (stereo not drawn) [Compound 92], for which, in data set [1] (normal hiPSC cardiomyocytes), the “WT-Fold Prolongation” value was “None”, the “Cessation of Beating” value amounted to 66 µM and the “WT-Prolongation Dose” value is reported as “None”. In data set [2] (LQT3 cardiomyocytes), the “LQT-Cessation Dose” value was found to be 66 µM and the “LQT-Fold Shortening” value is reported as 1.41.

As to `Cc1cc(C)cc(OCC(N)c2ccccc2)c1` (stereo not drawn) [Compound 104b], the EC50 (usually the concentration at which the effect is half-maximal) in data set [2] (read-out: LQT-EC50 (μM)-Shortening, 'No AP' wraps to 'No AP shortening') amounted to 0.87 µM.

For the origin of these results see US11492325B2, “Compounds as inhibitors of sodium channels” (Human BioMolecular Research Institute, priority 2016, dated 2022).
